Source: US11986489B2, “Method of treating a disease using a glycolytic dependent compound” (Ethicon, Inc., priority 2015, dated 2024)
Where a name gives a salt, the structure may show the parent alone. Read-outs that look alike come from different tables or passages of the source. Blank lines part the entries; values can stand above or below the compound they belong to.

What was measured:
[1] = WST-1 viability of NHDF cells treated with Dox with or without ORC; assay type: cell-based, Human; conditions: human, NHDF cells (normal human dermal fibroblasts), NHDF cells, 16-18 hours, WST-1; for cytotoxicity at 5 μM: Dox 5 μM; for cytotoxicity at 25 μM: Dox 25 μM; for cytotoxicity at 50 μM: Dox 50 μM
Procedure: (§1) NU-KNIT® (ORC) patch: NU-KNIT® was cut with an 8 mm punch to form 8 mm circles of Nuknit. These circles were then cut into 4 quarters using sterile scissors (each quarter has a weight of 2.2-2.7 mg, Average 2.44 mg, n=10).
(§2) Day 1: Two 24-well plates were seeded with 15,000 NHDF cells/well using a 15,000 cells/ml suspension according to the plate layout below (representing about 20%-30% confluency of cells).
(§3) The plates were incubated overnight, for 16-18 hours, in a water jacketed 37° C. incubator with 5% CO2.
(§4) The cells at this stage were about 40%-50% confluent.
(§5) Immediately, a NuKnit® ¼ punch was added to the wells according to the plate layout.
(§6) Day 3: The untreated cells at this stage were about 60%-70% confluent. The plate's medium was decanted and replaced with 0.5 ml of Growth medium. 50 μl of WST-1 were added to each well. The plates were then incubated for an additional 4 hours.
(§7) The plates were then read with an ELISA reader at 450 nm and 650 nm Optical Density (OD). Wells containing medium with no cells were used as blank.
(§8) The results obtained by ELISA reader at 650 nm were subtracted from the results obtained at 450 nm per each well separately=sample OD.
(§9) The relative viability of the rest of the wells was calculated according to the following calculation: sample OD/untreated OD×100. The results were depicted in FIG. 2.
(§10) The following experiment was set in order to evaluate the effect of ORC on Doxorubicin activity on Normal Human Dermal Fibroblast (NHDF) cells. Doxorubicin activity will be expressed in relative cell viability compared to untreated cells. […] The final viability of the cells was evaluated with WST-1 staining. WST-1 is a Tetrazolium salts that is only cleaved to Formazan in metabolically active intact cells.

[2] = system: Normal Human Dermal Fibroblast (NHDF) cells; assay: as above; assay type: cell-based; conditions: for Potency increase of Dox in the presence of ORC: with ORC divided by without ORC
Procedure: as §1, §2, §3, §4, §5, §6, §7, §8, §9, §10

[3] = human, in vivo
From the text: Clinically, a half-life of a given compound is the amount of time required for the compound to fall e.g. in the circulation to half its initial administered dose i.e. how long it takes for the body to remove half of the administered dose. Typically, compounds are active for a multiple of their half-life, for example, five times the half-life can be used to describe the time period for a therapy's treatment. In the case of many therapies, this translates into days where the drug is having an effect on targeted tissues. All clinically used and approved drugs will have well described time ranges and amounts for calculating dose and therapy plans. In one embodiment, the performance of the compound in addressing the underlying pathology e.g. malignancy is adjusted in view of the presence of ORC, and/or OC that can localize the therapy at the target site during the limited time the compound is in the body and before it is being processed.
In certain embodiments a “therapeutically effective dose” refers to the median effective dose ED50, for a particular know drug. […] Mean: 1-3 hours. Typically, 5 times the elimination half-life will give the time at which point the drug has been completely eliminated from the body. For Doxorubicin this would be 5-15 hours.

[4] = in vivo; cited from earlier work
[5] = with ORC (¼ Nuknit of 8 mm), read-out: With ORC relative reduction of viability (%)
[6] = without ORC, read-out: Without ORC relative reduction of viability (%)

- time at which the drug has been completely eliminated from the body [3]: 5 to 15 h
SMILES: COc1cccc2c1C(=O)c1c(O)c3c(c(O)c1C2=O)C[C@@](O)(C(=O)CO)C[C@@H]3O[C@H]1C[C@H](N)[C@H](O)[C@H](C)O1 [Dox, Doxorubicin hydrochloride]
- cytotoxicity at 5 μM [1, 5]: ~55%
- cytotoxicity at 5 μM [1, 6]: ~30%
- cytotoxicity at 25 μM [1, 5]: ~74%
- cytotoxicity at 25 μM [1, 6]: ~40%
- cytotoxicity at 50 μM [1, 5]: 80%
- cytotoxicity at 50 μM [1, 6]: 65%
- Potency increase of Dox in the presence of ORC ([2]; Dox 5 μM): 1.89
- Potency increase of Dox in the presence of ORC ([2]; Dox 25 μM): 1.83
- Potency increase of Dox in the presence of ORC ([2]; Dox 50 μM): 1.24
- Dox concentration at which the viability reduction is already evident ([2]; NHDF cells, in the absence of ORC): 5.0 µM
- Effect of Dox on the viability of NHDF cells ([2]; in the absence of ORC): reduces the viability of NHDF cells, in the absence of ORC in a dose dependent manner
- biological half-life, mean [4]: 1-3 hours
- biological half-life, triphasic, third phase [4]: 30 hours

SMILES: CO[C@H]1C[C@@H]2CC[C@@H](C)[C@@](O)(O2)C(=O)C(=O)N2CCCC[C@H]2C(=O)O[C@H]([C@H](C)C[C@@H]2CC[C@@H](OCCO)[C@H](OC)C2)CC(=O)[C@H](C)/C=C(\C)[C@@H](O)[C@@H](OC)C(=O)[C@H](C)C[C@H](C)/C=C/C=C/C=C/1C [Everolimus]
- half-life [4]: about 30 hours

SMILES: Cc1ccc(Nc2nccc(N(C)c3ccc4c(C)n(C)nc4c3)n2)cc1S(N)(=O)=O [Pazopanib]
- half-life [4]: about 31 hours

SMILES: CNC(=O)c1cc(Oc2ccc(NC(=O)Nc3ccc(Cl)c(C(F)(F)F)c3)cc2)ccn1 [Sorafenib]
- half-life [4]: 20 to 27 h

SMILES: CCN(CC)CCNC(=O)c1c(C)[nH]c(/C=C2\C(=O)Nc3ccc(F)cc32)c1C [Sunitinib]
- half-life [4]: 41 to 86 h

SMILES: CO[C@H]1C[C@@H]2CC[C@@H](C)[C@@](O)(O2)C(=O)C(=O)N2CCCC[C@H]2C(=O)O[C@H]([C@H](C)C[C@@H]2CC[C@@H](OC(=O)C(C)(CO)CO)[C@H](OC)C2)CC(=O)[C@H](C)/C=C(\C)[C@@H](O)[C@@H](OC)C(=O)[C@H](C)C[C@H](C)/C=C/C=C/C=C/1C [Temsirolimus]
- half-life [4]: about 17.3 hours
